Results: US20150057465A1, “CONTROL OF GROWTH-INDUCTION-PRODUCTION PHASES” (OPX BIOTECHNOLOGIES, INC., priority 2013, published 2015)
“Also recorded” adds a separate entry of the source. Read-outs that look alike come from different tables or passages of the source.

B1: rhtA: chemical exporter from E. coli characterized for homoserine transport; mutant rhtA(P2S), SEQ ID NO. 30, 31, overexpressed (protein)
chain: MSGSLRKMPVWLPIVILLVAMASIQGGASLAKSLFPLVGAPGVTALRLALGTLILIAFFKPWRLRFAKEQRLPLLFYGVSLGGMNYLFYLSIQTVPLGIAVALEFTGPLAVALFSSRRPVDFVWVVLAVLGLWFLLPLGQDVSHVDLTGCALALGAGACWAIYILSGQRAGAEHGPATVAIGSLIAALIFVPIGALQAGEALWHWSVIPLGLAVAILSTALPYSLEMIALTRLPTRTFGTLMSMEPALAAVSGMIFLGETLTPIQLLALGAIIAASMGSTLTVRKESKIKELDIN
notes: chemical exporter from E. coli characterized for homoserine transport; 30, 31, overexpressed

What was measured:
E. coli ACCase = E. coli ACCase (Escherichia coli, UniProt P0A9Q5+P0ABD5+P0ABD8+P24182); conditions: for effect of salt on ACCase activity: E. coli ACCase, dose-dependent studies, FIG. 4; for decrease of the activity of the ACCase enzyme: relative to control (FIG. 4)
Description: Levels of greater than 0.66M (60 g/L) are expected to be present for commercially viable commercial production of 3-HP.
Each gene was amplified by PCRs with Pfu Ultra II HS using the manufacturer's instructions, and the PCR products were purified using the Zymo PCR Cleanup kit. Concentrations of products were measured using the Nanodrop spectophotometer. The Gibson Assembly kit (NEB) was used to construct plasmids expressing the ACCase subunit genes as directed by the manufacturer. The effect of NH4-3-HP and NH4Cl on H. elongata ACCase was tested and compared to the E. coli ACCase.

H. elongata ACCase = assay: Salt inhibition of H. elongata ACCase activity; format: biochemical, Halomonas elongata; conditions: ACCase from the halophile H. elongata, compared to E. coli ACCase, FIG. 4
Description: Accordingly, the genes encoding the accA, accB, accC, accD of H. elongata described in Table 1 were synthesized for expression in E. coli using codons optimized for this organism and supplied individually on pUC57 plasmids without promoters. Synthetic operons comprising the subunits were assembled using the Gibson assembly method.
Concentrations of products were measured using the Nanodrop spectophotometer.

E. coli strains = assay: Growth inhibition of E. coli strains grown in the presence of 3-HP; format: cell-based
3HP titer = assay: 1 L fermentation with overexpression of rhtA exporter, 3HP titer; format: cell-based, E. coli; conditions: compared to control plasmid without rhtA, FIG. 7
Description: A known chemical exporter from E. coli that has been previously characterized for homoserine transport, rhtA, was evaluated for increased production of 3-HP. A mutant version of the exporter, rhtA(P2S) (SEQ ID NO. 30 nucleic acid, SEQ ID NO. 31 protein) was synthesized behind the PtpiA promoter and inserted into the pTRC-PyibD-MCR plasmid behind a terminator using the Gibson Assemply kit (NEB) according to manufacturer's instructions. The effects of overexpression of rhtA were evaluated in 1 L fermentation compared to the control plasmid without rhtA. […] Construction of plasmids expressing another putative transporter, ydcO (SEQ ID NO. 32 nucleic acid, SEQ ID NO. 33 protein) is carried out in the same manner.

[1] = salts of 3-HP levels near 0.66M

E. coli ACCase, sequence (P0A9Q5 whole entry): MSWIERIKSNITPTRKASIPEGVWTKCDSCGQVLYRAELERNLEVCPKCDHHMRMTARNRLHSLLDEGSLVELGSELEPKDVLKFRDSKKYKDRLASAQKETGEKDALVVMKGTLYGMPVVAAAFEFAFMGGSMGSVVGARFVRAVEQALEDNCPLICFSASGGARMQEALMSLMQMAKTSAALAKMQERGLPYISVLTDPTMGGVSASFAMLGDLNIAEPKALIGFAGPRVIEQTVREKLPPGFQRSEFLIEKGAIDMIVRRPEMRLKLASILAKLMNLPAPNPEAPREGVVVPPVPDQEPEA
E. coli ACCase, sequence (P0ABD5 whole entry): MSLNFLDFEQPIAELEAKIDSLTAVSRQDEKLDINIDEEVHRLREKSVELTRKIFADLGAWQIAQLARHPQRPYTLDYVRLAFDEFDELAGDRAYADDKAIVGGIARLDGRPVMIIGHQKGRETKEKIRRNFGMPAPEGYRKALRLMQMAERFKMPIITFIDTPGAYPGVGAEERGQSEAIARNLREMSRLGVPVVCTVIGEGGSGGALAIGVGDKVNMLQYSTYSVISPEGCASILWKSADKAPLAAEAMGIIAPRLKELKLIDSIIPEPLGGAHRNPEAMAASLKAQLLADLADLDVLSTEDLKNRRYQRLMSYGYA

Molecule | effect of salt on ACCase activity (E. coli ACCase) | decrease of the activity of the ACCase enzyme (E. coli ACCase; [1]) | effect of salt on ACCase activity (H. elongata ACCase) | decrease of the activity of the ACCase enzyme (E. coli ACCase; salt levels near 0.44M) | further results
O=C([O-])CCO.[Na+] [Na-3-HP] | inhibitory effects | approximately 80% | – | – | –
N.O=C(O)CCO [NH4-3-HP] | significantly inhibited | approximately 80% | less affected | – | –
[Cl-].[Na+] [NaCl] | inhibitory effects | – | – | approximately 80% | –
O=C(O)CCO [3-HP, 3-hydroxypropionic acid] | – | – | – | – | 3-HP level at which growth inhibition was demonstrated (E. coli strains): ≥ 20 g/L
Cl.N [NH4Cl] | significantly inhibited | – | less affected | approximately 80% | –
B1 | – | – | – | – | 3HP titer (3HP titer): improved production of 3-HP; also recorded: significant improvement in 3HP titer
